Earlier results as cited in patent US6455592B1, “Use of hydrophilic penetration agents in dermatological compositions for the treatment of onychomycoses, and corresponding compositions” (Novartis AG, priority 1991, dated 2002).
Where a name gives a salt, the structure may show the parent alone.

Conditions: oral treatment with 250 mg/day over 8 weeks

## CN(C/C=C/C#CC(C)(C)C)Cc1cccc2ccccc12 [terbinafine-HCl, Terbinafine hydrochloride]
  concentration of terbinafine-HCl in the nails: 0.4±0.15 ng of terbinafine-HCl per mg of nail material
